Experimental data reported in publication PMC11882969 (Nature Communications, 2025).
Values joined by “and” are separate entries in the source; they are usually repeats but may differ in a detail not shown here. Equal entries are not always repeated.

Key:
mice = test: Catalepsy test, vertical wire mesh; format: in vivo, mouse
Procedure: Thirty min after an i.p. injection of the compounds, mice were placed on a vertical wire mesh and the latency to move all four paws was recorded.

[1] = Pharmacokinetics: plasma, brain, CSF
hCB1 = hCB1 (Homo sapiens, UniProt P21554); test: bioSensAll ebBRET signaling profiling, hCB1; format: cell-based; design: host or cells: HEK293SL cells, transient PEI transfection; conditions: for Barr2+GRK2 hCB1 response: Barr2+GRK2 biosensor; for Gi1 hCB1 / GoB hCB1: single replicate values, FigS6a
CB1 (rCB1) [2] = molecular target: T1, CB1 (rCB1) (Rattus norvegicus, UniProt P20272); test: Single-point radioligand displacement screen; format: binding; conditions: 10 µM, 1 µM or 300 nM by cell colour (not visible)
CB1 (rCB1) [3] = molecular target: T1, CB1 (rCB1); test: Radioligand competition binding, [3H]-CP-55,940, rat brain membranes

Sequence of hCB1 (P21554 whole entry): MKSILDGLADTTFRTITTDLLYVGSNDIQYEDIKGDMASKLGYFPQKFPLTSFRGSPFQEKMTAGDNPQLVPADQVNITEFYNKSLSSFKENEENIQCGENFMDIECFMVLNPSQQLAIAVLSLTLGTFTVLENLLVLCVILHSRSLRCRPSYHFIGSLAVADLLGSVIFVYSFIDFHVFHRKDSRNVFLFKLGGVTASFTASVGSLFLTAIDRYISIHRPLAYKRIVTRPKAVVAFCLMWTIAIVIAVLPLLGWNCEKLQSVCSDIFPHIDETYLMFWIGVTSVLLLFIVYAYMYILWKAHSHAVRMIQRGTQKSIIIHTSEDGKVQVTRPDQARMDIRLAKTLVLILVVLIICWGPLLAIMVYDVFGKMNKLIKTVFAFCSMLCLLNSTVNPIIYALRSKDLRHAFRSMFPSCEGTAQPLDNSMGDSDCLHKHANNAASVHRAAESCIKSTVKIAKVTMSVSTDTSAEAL
T1 sequence (P20272 whole entry): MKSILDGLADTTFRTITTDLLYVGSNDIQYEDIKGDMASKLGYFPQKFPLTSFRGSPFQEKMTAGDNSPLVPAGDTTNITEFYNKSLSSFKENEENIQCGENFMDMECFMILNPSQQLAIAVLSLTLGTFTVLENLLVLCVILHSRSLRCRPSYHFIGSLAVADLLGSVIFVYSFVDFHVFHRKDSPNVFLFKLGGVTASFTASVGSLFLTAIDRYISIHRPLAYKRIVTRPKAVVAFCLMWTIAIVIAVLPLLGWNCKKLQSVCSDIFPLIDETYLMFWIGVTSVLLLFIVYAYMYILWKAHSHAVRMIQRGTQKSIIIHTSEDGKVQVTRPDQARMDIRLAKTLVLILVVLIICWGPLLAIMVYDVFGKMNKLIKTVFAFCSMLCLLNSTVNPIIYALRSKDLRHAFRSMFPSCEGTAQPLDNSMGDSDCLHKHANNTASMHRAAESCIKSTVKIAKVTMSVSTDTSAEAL

Structure (SMILES): O=C(CCCN1CCC(O)(c2ccc(Cl)cc2)CC1)c1ccc(F)cc1 [haloperidol, reference compound]
- catalepsy (Figure6c), individual animals (mice; 1 mg/kg dose): 21 and 17 and 11.5 and 18 and 14
- catalepsy, latency to move all four paws (mice; i.p., ‘1350 at 0.2 or 0.5 mg/kg, haloperidol 1.0 mg/kg): induced catalepsy

Structure (SMILES): CCCCCCC(C)(C)c1ccc([C@@H]2C[C@H](O)CC[C@H]2CCCO)c(O)c1 [CP55940]
- Brain, Mean ([1]; Time 1 min): 0
- CSF, Mean ([1]; Time 1 min): 0
- Plasma, Mean ([1]; Time 1 min): 0
- Brain, Mean ([1]; Time 5 min): 0
- CSF, Mean ([1]; Time 5 min): 0
- Plasma, Mean ([1]; Time 5 min): 21.5
- Brain, Mean ([1]; Time 15 min): 11.5
- CSF, Mean ([1]; Time 15 min): 0
- Plasma, Mean ([1]; Time 15 min): 47.5
- Brain, Mean ([1]; Time 30 min): 19.2
- CSF, Mean ([1]; Time 30 min): 0
- Plasma, Mean ([1]; Time 30 min): 48.4
- Brain, Mean ([1]; Time 60 min): 17.1
- CSF, Mean ([1]; Time 60 min): 0
- Plasma, Mean ([1]; Time 60 min): 26.7
- Brain, Mean ([1]; Time 120 min): 11.9
- CSF, Mean ([1]; Time 120 min): 0
- Plasma, Mean ([1]; Time 120 min): 10.6
- Brain, Mean ([1]; Time 240 min): 3.09
- CSF, Mean ([1]; Time 240 min): 0
- Plasma, Mean ([1]; Time 240 min): 2.6
- Brain, Mean ([1]; Time 360 min): 0
- CSF, Mean ([1]; Time 360 min): 0
- Plasma, Mean ([1]; Time 360 min): 0
- Brain, Mean ([1]; Time 480 min): 0
- CSF, Mean ([1]; Time 480 min): 0
- Plasma, Mean ([1]; Time 480 min): 0
- Brain, Mean ([1]; Time […]): 0
- CSF, Mean ([1]; Time […]): 0
- Plasma, Mean ([1]; Time […]): 0

Structure (SMILES): Brc1cc2c(cc1Cc1noc(-c3cnn(CC4CC4)c3)n1)OCO2 [‘5424]
- Barr2+GRK2 hCB1 response (hCB1; Log [Compound] (M) -4.22186): 13.3846
- Barr2+GRK2 hCB1 response (hCB1; Log [Compound] (M) -4.63927): -34.7954
- Barr2+GRK2 hCB1 response (hCB1; Log [Compound] (M) -5.05788): -53.3016
- Barr2+GRK2 hCB1 response (hCB1; Log [Compound] (M) -5.47381): -24.9041
- Barr2+GRK2 hCB1 response (hCB1; Log [Compound] (M) -5.89285): -50.1109
- Barr2+GRK2 hCB1 response (hCB1; Log [Compound] (M) -6.31878): -50.749
- Barr2+GRK2 hCB1 response (hCB1; Log [Compound] (M) -6.72585): -48.8346
- Barr2+GRK2 hCB1 response (hCB1; Log [Compound] (M) -7.14267): -52.6635
- Barr2+GRK2 hCB1 response (hCB1; Log [Compound] (M) -7.55284): -51.0681
- Barr2+GRK2 hCB1 response (hCB1; Log [Compound] (M) -8): -33.5191
- Barr2+GRK2 hCB1 response (hCB1; Log [Compound] (M) -8.22186): -13.7366
- Barr2+GRK2 hCB1 response (hCB1; Log [Compound] (M) -8.39794): -34.7954
- Barr2+GRK2 hCB1 response (hCB1; Log [Compound] (M) -8.68787): -65.1073
- Barr2+GRK2 hCB1 response (hCB1; Log [Compound] (M) -9.15521): -41.4959
- Barr2+GRK2 hCB1 response (hCB1; Log [Compound] (M) -9.61989): -48.1965
- Barr2+GRK2 hCB1 response (hCB1; Log [Compound] (M) -10.0969): -56.8114
- Barr2+GRK2 hCB1 response (hCB1; Log [Compound] (M) -10.5529): -48.8346
- Barr2+GRK2 hCB1 response (hCB1; Log [Compound] (M) -11.0177): -49.7918
- Barr2+GRK2 hCB1 response (hCB1; Log [Compound] (M) -11.4949): -48.1965
- Barr2+GRK2 hCB1 response (hCB1; Log [Compound] (M) -11.9208): -46.9202
- Barr2+GRK2 hCB1 response (hCB1; Log [Compound] (M) -12.3979): -47.8774
- Barr2+GRK2 hCB1 response (hCB1; Log [Compound] (M) -12.8861): -20.4371
- Barr2+GRK2 hCB1 response (hCB1; Log [Compound] (M) -13.3979): -11.8221
- Gi1 hCB1 (hCB1; Log [Compound] (M) -4.22186): -12.5553
- GoB hCB1 (hCB1; Log [Compound] (M) -4.22186): -17.0204
- Gi1 hCB1 (hCB1; Log [Compound] (M) -4.63927): -11.9852
- GoB hCB1 (hCB1; Log [Compound] (M) -4.63927): -18.7739
- Gi1 hCB1 (hCB1; Log [Compound] (M) -5.05788): -14.0757
- GoB hCB1 (hCB1; Log [Compound] (M) -5.05788): -12.8536
- Gi1 hCB1 (hCB1; Log [Compound] (M) -5.47381): -12.6978
- GoB hCB1 (hCB1; Log [Compound] (M) -5.47381): -15.4926
- Gi1 hCB1 (hCB1; Log [Compound] (M) -5.89285): -12.001
- GoB hCB1 (hCB1; Log [Compound] (M) -5.89285): -16.569
- Gi1 hCB1 (hCB1; Log [Compound] (M) -6.31878): -13.0779
- GoB hCB1 (hCB1; Log [Compound] (M) -6.31878): -15.128
- Gi1 hCB1 (hCB1; Log [Compound] (M) -6.72585): -11.811
- GoB hCB1 (hCB1; Log [Compound] (M) -6.72585): -16.3259
- Gi1 hCB1 (hCB1; Log [Compound] (M) -7.14267): -11.1775
- GoB hCB1 (hCB1; Log [Compound] (M) -7.14267): -15.4926
- Gi1 hCB1 (hCB1; Log [Compound] (M) -7.55284): -10.8449
- GoB hCB1 (hCB1; Log [Compound] (M) -7.55284): -14.0342
- Gi1 hCB1 (hCB1; Log [Compound] (M) -8): -8.707
- GoB hCB1 (hCB1; Log [Compound] (M) -8): -12.871
- Gi1 hCB1 (hCB1; Log [Compound] (M) -8.22186): -5.46
- GoB hCB1 (hCB1; Log [Compound] (M) -8.22186): -9.781
- Gi1 hCB1 (hCB1; Log [Compound] (M) -8.39794): -6.126
- GoB hCB1 (hCB1; Log [Compound] (M) -8.39794): -10.3709
- Gi1 hCB1 (hCB1; Log [Compound] (M) -8.68787): -3.497
- GoB hCB1 (hCB1; Log [Compound] (M) -8.68787): -5.77
- Gi1 hCB1 (hCB1; Log [Compound] (M) -9.15521): -3.212
- GoB hCB1 (hCB1; Log [Compound] (M) -9.15521): -5.544
- Gi1 hCB1 (hCB1; Log [Compound] (M) -9.61989): -0.3926
- GoB hCB1 (hCB1; Log [Compound] (M) -9.61989): -4.867
- Gi1 hCB1 (hCB1; Log [Compound] (M) -10.0969): -1.39
- GoB hCB1 (hCB1; Log [Compound] (M) -10.0969): -5.128
- Gi1 hCB1 (hCB1; Log [Compound] (M) -10.5529): 0.9853
- GoB hCB1 (hCB1; Log [Compound] (M) -10.5529): -3.287
- Gi1 hCB1 (hCB1; Log [Compound] (M) -11.0177): -1.058
- GoB hCB1 (hCB1; Log [Compound] (M) -11.0177): -4.781
- Gi1 hCB1 (hCB1; Log [Compound] (M) -11.4949): -2.008
- GoB hCB1 (hCB1; Log [Compound] (M) -11.4949): -5.51
- Gi1 hCB1 (hCB1; Log [Compound] (M) -11.9208): -4.653
- GoB hCB1 (hCB1; Log [Compound] (M) -11.9208): -6.586
- Gi1 hCB1 (hCB1; Log [Compound] (M) -12.3979): -2.024
- GoB hCB1 (hCB1; Log [Compound] (M) -12.3979): -6.3778
- Gi1 hCB1 (hCB1; Log [Compound] (M) -12.8861): -1.992
- GoB hCB1 (hCB1; Log [Compound] (M) -12.8861): -4.242
- Gi1 hCB1 (hCB1; Log [Compound] (M) -13): 0.06671
- GoB hCB1 (hCB1; Log [Compound] (M) -13): -4.798
- Gi1 hCB1 (hCB1; Log [Compound] (M) cell empty): -0.7726
- GoB hCB1 (hCB1; Log [Compound] (M) cell empty): -5.458
- % 1H-CP-55,940 displacement (mean) from single point screen (CB1 (rCB1) [2]): 80.66%
- Ki (CB1 (rCB1) [3]): 876 nM
